In ChEMBL document CHEMBL3217729, “Sangamides, a new class of cyclophilin-inhibiting host-targeted antivirals for treatment of HCV infection” (Medchemcomm, 2012):
The source made the active and inactive calls. The calls are words filed in the database; no cut-off is given here.

Legend:
[1] = biological target: T1, Peptidyl-prolyl cis-trans isomerase A (Homo sapiens, UniProt P62937); test: Inhibition of PPIase activity of recombinant CypA (unknown origin) assessed as chymotrypsin-mediated N-succinyl-Ala-Ala-Pro-Phe-p-nitroanilide hydrolysis after 1 hr by spectrophotometric analysis
T1 sequence (P62937 whole entry): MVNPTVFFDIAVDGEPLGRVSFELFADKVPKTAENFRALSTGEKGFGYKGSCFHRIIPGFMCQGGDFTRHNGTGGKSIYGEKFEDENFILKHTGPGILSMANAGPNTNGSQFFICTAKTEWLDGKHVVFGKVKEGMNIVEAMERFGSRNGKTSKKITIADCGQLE

[2] = in vitro; settings: mouse, liver microsomes
Description: Half life in mouse liver microsomes at 1 uM by LC-MS/MS analysis

[3] = Half life in human hepatocytes at 1 uM by LC-MS/MS analysis; assay type: ADME, cell-based, Hepatocyte
[4] = physchem; settings: n-octanol/potassium phosphate buffer, pH 7.4
[5] = Cytostatic activity against human Huh5-2 cells assessed as decrease in cell proliferation after 3 days by MTS method; assay type: ADME, cell-based, Huh-5-2
[6] = Percentage bound in human plasma at 1 uM after 5 hrs by dialysis chamber method; assay type: ADME, cell-free; settings: read-out: PPB (converted)
[7] = test system: Hepatitis C virus; test: Antiviral activity against Hepatitis C virus genotype 1a H77 infected in human Huh7 cells assessed as decrease in subgenomic RNA level after 72 hrs by RT-PCR analysis; assay type: functional, cell-based, Hepacivirus hominis; settings: genotype 1a H77, Huh-7, 72 h
[8] = biological target: T1, Peptidyl-prolyl cis-trans isomerase A; test: Inhibition of recombinant GST-tagged CypA (unknown origin)/HCV Con1 NS5A-His interaction after 16 hrs by ELISA
[9] = test system: PBMC; test: Immunosuppressive activity in human PBMC isolated from two individuals assessed as inhibition of proliferation using [3H]thymidine by mixed lymphocyte reaction assay; assay type: cell-based
[10] = test system: Hepatitis C virus; test: Antiviral activity against Hepatitis C virus genotype 1b I389luc-ubi-neo/NS3-3'/5.1 subgenomic replicon infected in human Huh5-2 cells after 4 days by luciferase assay; assay type: functional, cell-based, Hepacivirus hominis; settings: Huh-5-2, 96 h
[11] = test system: Hepatitis C virus; test: Antiviral activity against Hepatitis C virus genotype 2a JFH-1 infected in human Huh7 cells assessed as decrease in subgenomic RNA level after 72 hrs by RT-PCR analysis; assay type: functional, cell-based, Hepacivirus hominis; settings: genotype 2a JFH-1, Huh-7, 72 h
[12] = Solubility of the compound in phosphate buffered saline at pH 7.4 after 4 hrs by LC-MS/MS analysis
[13] = Selectivity index, ratio of CC50 for human Huh5-2 cells to EC50 for Hepatitis C virus genotype 1b I389luc-ubi-neo/NS3-3'/5.1 subgenomic replicon infected in human Huh5-2 cells; assay type: toxicity, cell-based, Huh-5-2; settings: read-out: Ratio CC50/EC50
[14] = test system: Hepatitis C virus; test: Antiviral activity against Hepatitis C virus genotype 1b Con1 infected in human Huh7 cells assessed as decrease in subgenomic RNA level after 72 hrs by RT-PCR analysis; assay type: functional, cell-based, Hepacivirus hominis; settings: genotype 1b Con1, Huh-7, 72 h
[15] = Half life in human liver microsomes at 1 uM by LC-MS/MS analysis; assay type: ADME
[16] = Ratio of drug level in liver to blood in CD-1 mouse at 5 mg/kg, po administered as single dose measured for 24 hrs post-dose by LC-MS/MS analysis; assay type: ADME, organism-based; design: dose 5 mg/kg, route oral; settings: liver and blood
[17] = test system: Liver; test: Drug level in CD-1 mouse liver at 5 mg/kg, po administered as single dose measured per gm of tissue for 24 hrs post-dose by LC-MS/MS analysis; assay type: ADME, organism-based; design: dose 5 mg/kg, route oral; settings: in vivo
[18] = biological target: ATP-dependent translocase ABCB1 (Homo sapiens, UniProt P08183); test: Inhibition of MDR1 (unknown origin) expressed in MDCK1 cells assessed as reduction of loperamide substrate permeability up to 50 uM after 60 mins by LC-MS/MS analysis; assay type: ADME, cell-based; settings: mdck1, 1 h
ATP-dependent translocase ABCB1, sequence (P08183 whole entry): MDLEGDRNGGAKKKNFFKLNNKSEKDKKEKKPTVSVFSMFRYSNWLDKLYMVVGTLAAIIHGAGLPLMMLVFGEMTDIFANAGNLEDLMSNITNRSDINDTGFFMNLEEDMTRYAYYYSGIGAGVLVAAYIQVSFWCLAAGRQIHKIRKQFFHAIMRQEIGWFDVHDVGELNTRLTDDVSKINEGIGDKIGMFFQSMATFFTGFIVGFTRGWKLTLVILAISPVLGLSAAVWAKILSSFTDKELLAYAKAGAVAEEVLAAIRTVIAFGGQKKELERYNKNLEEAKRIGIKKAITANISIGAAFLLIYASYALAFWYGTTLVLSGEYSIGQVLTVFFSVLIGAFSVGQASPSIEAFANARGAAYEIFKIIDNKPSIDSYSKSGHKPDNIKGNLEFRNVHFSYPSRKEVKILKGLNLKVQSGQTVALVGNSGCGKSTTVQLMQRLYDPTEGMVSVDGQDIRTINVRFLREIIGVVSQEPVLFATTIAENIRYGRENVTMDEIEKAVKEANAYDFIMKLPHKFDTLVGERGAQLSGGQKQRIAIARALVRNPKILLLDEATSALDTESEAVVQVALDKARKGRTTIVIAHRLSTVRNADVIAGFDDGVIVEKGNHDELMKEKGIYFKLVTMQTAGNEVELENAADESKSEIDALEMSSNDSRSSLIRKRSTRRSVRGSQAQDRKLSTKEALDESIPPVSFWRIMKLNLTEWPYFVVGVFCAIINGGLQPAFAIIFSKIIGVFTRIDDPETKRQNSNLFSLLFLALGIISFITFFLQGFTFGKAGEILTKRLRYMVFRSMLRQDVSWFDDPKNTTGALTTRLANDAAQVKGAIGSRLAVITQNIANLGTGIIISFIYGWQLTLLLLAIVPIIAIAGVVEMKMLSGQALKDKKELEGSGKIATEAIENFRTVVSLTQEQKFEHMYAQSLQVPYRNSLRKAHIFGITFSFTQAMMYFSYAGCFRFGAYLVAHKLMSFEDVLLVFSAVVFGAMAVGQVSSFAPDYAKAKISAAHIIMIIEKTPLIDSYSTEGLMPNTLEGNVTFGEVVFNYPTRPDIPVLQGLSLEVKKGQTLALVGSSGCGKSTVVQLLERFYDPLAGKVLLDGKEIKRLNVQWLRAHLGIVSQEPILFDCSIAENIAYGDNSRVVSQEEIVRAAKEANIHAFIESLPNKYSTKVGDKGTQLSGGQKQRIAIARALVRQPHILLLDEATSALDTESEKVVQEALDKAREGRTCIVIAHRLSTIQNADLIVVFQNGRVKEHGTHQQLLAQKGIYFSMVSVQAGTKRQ

[19] = Drug level in CD-1 mouse blood at 5 mg/kg, po administered as single dose measured for 24 hrs post-dose by LC-MS/MS analysis; assay type: ADME, organism-based; design: dose 5 mg/kg, route oral; settings: read-out: Drug uptake
[20] = test system: Hepatitis C virus; test: Antiviral activity against Hepatitis C virus genotype 1b Con1 infected in human Huh7 cells assessed as viral rebound by measuring replicon RNA content at 0.5 to 1 uM after drug removal by RT-qPCR analysis; assay type: functional, cell-based; settings: Hepacivirus hominis, Huh-7
[21] = biological target: T2, ATP-binding cassette sub-family C member 2 (Homo sapiens, UniProt Q92887); test: Inhibition of ATPase activity of MRP2 (unknown origin) expressed in membrane assessed as amount of phosphate released using probenecid as substrate up to 50 uM by molybdenum blue assay
T2 sequence (Q92887 whole entry): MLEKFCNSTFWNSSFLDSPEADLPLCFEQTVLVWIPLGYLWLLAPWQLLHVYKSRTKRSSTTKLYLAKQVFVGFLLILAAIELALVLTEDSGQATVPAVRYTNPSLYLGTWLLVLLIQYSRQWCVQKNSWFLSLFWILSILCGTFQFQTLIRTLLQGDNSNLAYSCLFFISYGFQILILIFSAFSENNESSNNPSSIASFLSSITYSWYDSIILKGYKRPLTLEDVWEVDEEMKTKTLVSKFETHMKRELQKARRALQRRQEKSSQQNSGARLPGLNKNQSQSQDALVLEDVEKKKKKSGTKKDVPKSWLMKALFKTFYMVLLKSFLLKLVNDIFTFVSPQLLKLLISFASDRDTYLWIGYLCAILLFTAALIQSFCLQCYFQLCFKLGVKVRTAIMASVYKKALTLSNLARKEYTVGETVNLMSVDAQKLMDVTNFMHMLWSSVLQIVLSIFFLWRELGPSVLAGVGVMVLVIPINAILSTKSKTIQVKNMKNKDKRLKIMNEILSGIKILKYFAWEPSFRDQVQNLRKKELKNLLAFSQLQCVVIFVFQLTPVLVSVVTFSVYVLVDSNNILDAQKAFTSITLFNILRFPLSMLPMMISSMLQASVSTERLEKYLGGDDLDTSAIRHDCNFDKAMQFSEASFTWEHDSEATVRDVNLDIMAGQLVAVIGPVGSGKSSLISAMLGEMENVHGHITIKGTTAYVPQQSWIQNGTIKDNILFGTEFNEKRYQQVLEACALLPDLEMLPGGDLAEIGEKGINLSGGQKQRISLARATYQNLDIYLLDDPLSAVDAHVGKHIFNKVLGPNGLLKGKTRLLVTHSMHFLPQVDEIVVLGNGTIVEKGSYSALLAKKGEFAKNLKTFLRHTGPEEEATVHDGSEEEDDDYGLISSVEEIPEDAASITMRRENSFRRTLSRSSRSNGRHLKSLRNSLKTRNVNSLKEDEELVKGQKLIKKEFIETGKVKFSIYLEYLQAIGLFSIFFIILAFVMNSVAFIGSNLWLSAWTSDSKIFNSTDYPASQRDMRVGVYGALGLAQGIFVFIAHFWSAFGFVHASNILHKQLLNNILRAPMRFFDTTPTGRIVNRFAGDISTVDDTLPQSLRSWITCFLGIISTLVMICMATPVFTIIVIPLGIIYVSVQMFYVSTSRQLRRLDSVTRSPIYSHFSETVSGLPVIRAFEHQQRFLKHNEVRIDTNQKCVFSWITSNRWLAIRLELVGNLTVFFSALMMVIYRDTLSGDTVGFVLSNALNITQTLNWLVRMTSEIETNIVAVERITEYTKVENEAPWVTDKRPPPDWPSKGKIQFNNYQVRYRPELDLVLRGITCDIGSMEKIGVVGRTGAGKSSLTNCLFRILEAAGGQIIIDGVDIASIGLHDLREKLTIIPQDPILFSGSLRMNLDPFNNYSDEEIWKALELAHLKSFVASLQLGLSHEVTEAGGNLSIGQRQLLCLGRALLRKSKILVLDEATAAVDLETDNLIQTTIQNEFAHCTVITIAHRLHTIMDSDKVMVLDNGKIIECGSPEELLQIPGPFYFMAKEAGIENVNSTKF

[22] = biological target: T2, ATP-binding cassette sub-family C member 2; test: Inhibition of ATPase activity of MRP2 (unknown origin) expressed in membrane assessed as amount of phosphate released using probenecid as substrate at 14 uM by molybdenum blue assay

Row | SMILES | IC50 [1] | half-life at 1 µM [2] | half-life at 1 µM [3] | logD at 1 h [4] | CC50 at 72 h [5] | EC50 [7] | IC50 [8] | IC50 [9] | EC50 [10] | EC90 [10] | EC50 [11] | solubility at 4 h [12] | selectivity ratio [13] | EC50 [14] | half-life at 1 µM [15] | other results
1 | CON(C)C(=O)/C=C/C=C(\C)[C@@H]1C/C=C/C=C/[C@H](O)[C@H](C)[C@@H](O)[C@@H](CCC(C)=O)C(=O)N[C@@H](C(C)C)C(=O)N[C@@H](Cc2cccc(O)c2)C(=O)N2CCCC(N2)C(=O)O1 (stereo partly drawn) | 1.1 nM | 17.5 min | > 240 min | 2.3 | > 100000 nM | 156 nM | 200 nM | 1060 nM | 162 nM | 920 nM | 247 nM | > 100 µM | > 617 | 128 nM | 26.5 min | fraction unbound at 5 h, 1 µM [6]: 0.73
2 | CC(=O)CC[C@H]1C(=O)N[C@@H](C(C)C)C(=O)N[C@@H](Cc2cccc(O)c2)C(=O)N2CCCC(N2)C(=O)O[C@H](/C(C)=C/C=C/C(=O)N2CCCCO2)C/C=C/C=C/[C@H](O)[C@H](C)[C@H]1O (stereo partly drawn) | 2.7 nM | 5.8 min | 220 min | 2.6 | > 100000 nM | 63 nM | 360 nM | 1450 nM | 125 nM | 690 nM | 89 nM | > 100 µM | > 800 | 58 nM | 10.6 min | Kp at 24 h [16]: 3; Drug uptake [17]: 20 ng; inhibition (INH) [18]: Not Active; concentration at 24 h [19]: 20 ng/mL; Activity [20]: Active; inhibition (INH) [21]: Not Active
3 | CCc1oc2ccccc2c1C(=O)c1cc(Br)c(O)c(Br)c1 [BENZBROMARONE] |  |  |  |  |  |  |  |  |  |  |  |  |  |  |  | inhibition (INH) [22]: Active
